# Test results reported in patent US12275685B2, “Oligo-benzamide analogs and their use in cancer treatment” (Board of Regents, The University of Texas System, priority 2018, dated 2025).
# Entries after “also recorded” stand apart in the source; their conditions may differ. Like-named read-outs stand apart in the source and are kept apart here.
# How the values were obtained:
# breast cancer cells = test: Growth inhibition of breast cancer cells; type: cell-based; conditions: read-out: IC50, activity against breast cancer cells
# Source text: In addition, another tris-benzmaide compound TK208 was synthesized and tested against breast cancer and ovarian cancer cell lines (FIGS. 10-15). […] These compounds (e.g., TK41, TK208, TK308 (FIG. 21), TK309 (FIG. 22), TK314, TK315) are extremely potent compounds that inhibit tumor growth and kill breast and ovarian cancer cells and as such, they are superb therapeutic candidates for such diseases.
# WT ERα LBD = biological target: T1, WT ERα LBD (Homo sapiens, UniProt P03372); test: LanthaScreen TR-FRET ERα coactivator assay; type: binding
# T1 construct: in the presence of 3.5 nM ER Alpha-LBD (GST); purchased
# T1 sequence (P03372 311-547 limits assumed): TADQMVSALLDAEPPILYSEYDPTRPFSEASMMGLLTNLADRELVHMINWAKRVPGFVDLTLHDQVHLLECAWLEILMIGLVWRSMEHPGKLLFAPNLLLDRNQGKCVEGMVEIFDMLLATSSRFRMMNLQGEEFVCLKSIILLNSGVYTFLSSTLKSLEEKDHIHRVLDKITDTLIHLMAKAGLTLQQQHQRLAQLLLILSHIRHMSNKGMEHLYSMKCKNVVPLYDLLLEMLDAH
# [1] = test system: WT- and MT-ERα-driven cell lines (MCF-7, ZR-75); test: Anti-proliferative activity in WT- and MT-ERα-driven cell lines; type: cell-based
# [2] = test system: human mammary epithelial cells (HMEC); test: Activity of ERX-315 in HMEC; type: cell-based
# Source text: ERX-315. The binding of ERX-315 (structure shown in FIG. 65C) to ERα has been validated for WT ERα LBD using time-resolved FRET (TR-FRET)-ERα Coactivator assay (FIG. 65D: purified MT-ERα LBD is not available). […] In contrast, ERX-314, which has a methyl group in place of the N-terminal fluoride of ERX-315, is modeled to bind less avidly to MT-ERα LBD (predicted docking energy˜[…]). […] ERX-315 had no activity against benign breast epithelial cells, shown for the human mammary epithelial cells (HMEC). In contrast, ERX-314 has dramatically lower potency (IC50˜1500-5000 nM) and serves an internal control for ERX-315. The inventors have performed most of the studies described below with three compounds-ERX-315 as the optimized lead, ERX-11 as the parental compound and ERX-314 as a negative control.
# MT-ERα [3] = test: RNA sequencing of MT-ERα transcriptional programme; type: cell-based; conditions: MCF-7 and ZR-75 cells expressing D538G and Y537S MT-ERα
# Source text: (§1) FIGS. 66A-D: (FIG. 66A) Effect of ERX-315 on ERa DNA binding on the promoters of 5 canonical ERα-regulated genes with ERa ChIP in MCF-7 expressing D538G MT-ERα in the absence and presence of estradiol.
# (§2) Prior studies have shown that MT-ERα drives a canonical ERα transcriptional programme, both in the absence and presence of estradiol. RNA sequencing studies indicate that ERX-315 alters the transcriptional heatmap in MCF-7 and ZR-75 cells expressing D538G and Y537S MT-ERα (FIG. 66B, data shown for MCF-7 cells expressing D538G MT-ERα).
# D538G MT-ERα [4] = test: ERE reporter assay, ERX-315; type: cell-based; conditions: MCF-7 cells expressing D538G MT-ERα
# D538G MT-ERα [5] = test: ERα ChIP, ERX-315; type: cell-based
# Source text: as §1, §2
# [6] = test system: MCF-7 expressing mutant D538G; test: Protein synthesis by puromycin labeling, BC cells; type: cell-based; conditions: 16 h
# HMEC cells = test: Protein synthesis by puromycin labeling, HMEC; type: cell-based, human
# [7] = test system: BC cells expressing MT-ERα; test: Uncompensated UPR / LC3B activation; type: cell-based
# Protocol: ERX-315 decreases expression of ERα MCF-7 cells with MT-ERα, both the Y537S and D538G mutants (FIG. 67C), around 12-16 h (FIG. 67D). […] In contrast, neither fulvestrant nor GDC-0810 consistently degrade MT-ERa nor induce LC3.
# MT-ERα [8] = test: MT-ERα protein levels; type: cell-based; conditions: over 12-24 h
# [9] = Pharmacokinetic studies of ERX-315; type: in vivo, mice
# Protocol: At 24 h after oral administration, ERX-315 was still detectable in the plasma at >500 ng/mL. […] Thus, the inventors' initial studies indicate that once a day oral dosing of 10 mg/kg ERX-315 in captisol is sufficient to maintain therapeutic drug levels.
# [10] = test system: MT-ERα (ZR-75 and MCF-7 cells with MT Y537S ERα) driven xenograft models; test: ERX-315 in MT-ERα BC xenograft models; type: in vivo; conditions: for growth of MT-ERα xenografts / mouse liver, uterus, body weight: oral 10 mg/kg; for growth of MT-ERα xenografts: captisol
# Protocol: Following establishment of tumors, mice (n=6/group) were randomized and treated for 5 days/week with either 10 mg/kg/oral of ERX-315 or vehicle.
# [11] = test system: cell lines driven by MT-ERα; test: sXBP1 and CHOP RNA expression; conditions: three cell lines driven by MT-ERα
structure (smiles),measurement,setting,value
CC(C)COc1cc(C(=O)Nc2ccc(C(=O)N[C@H]3CC[C@H](C(=O)Nc4cnc5ccccc5c4)CC3)cc2OCC(C)C)ccc1NC(=O)c1ccc(F)c(OCCO)c1 [TK315],IC50,breast cancer cells,10 to 50 nM
same,binding to WT ERα LBD,WT ERα LBD,validated
same,IC50,[1],15 to 35 nM
same,activity against benign breast epithelial cells,[2],no activity
same,MT-ERα transcriptional programme,MT-ERα [3],efficiently blocks the transcriptional programme
same,ERE-driven transcription,D538G MT-ERα [4],attenuate transcription
same,MT-ERα binding to promoters of ERα-regulated genes,D538G MT-ERα [5],dramatically decreases MT-ERα binding
same,shutdown of protein synthesis in BC cells,[6],Global shutdown of protein synthesis
same,shutdown of protein synthesis in HMEC,HMEC cells,no significant shutdown of protein synthesis
same,uncompensated UPR leading to LC3B activation and cell death,[7],induced uncompensated UPR
same,protein levels of mutant ERα,MT-ERα [8],< 10 % basal
same,oral bioavailability,[9]; captisol formulation,orally bioavailable
same,concentration at 0.5 h,"[9]; mouse, blood, 0.5 hr, single oral 10 mg/kg in captisol",3440 ± 2320 ng/mL
same,concentration at 1 h,"[9]; mouse, blood, 1 hr, single oral 10 mg/kg in captisol",2400 ± 1460 ng/mL
same,concentration at 2 h,"[9]; mouse, blood, 2 hr, single oral 10 mg/kg in captisol, read-out: Blood",1840 ± 1290 ng/mL
same,concentration at 4 h,"[9]; mouse, blood, 4 hr, single oral 10 mg/kg in captisol, read-out: Blood",16000 ± 394 ng/mL
same,concentration at 8 h,"[9]; mouse, blood, 8 hr, single oral 10 mg/kg in captisol, read-out: Blood",823 ± 123 ng/mL
same,concentration at 16 h,"[9]; mouse, blood, 16 hr, single oral 10 mg/kg in captisol, read-out: Blood",427 ± 197 ng/mL
same,concentration at 24 h,"[9]; mouse, plasma, 10 mg/kg, 24 h after oral administration, read-out: plasma level",> 500 ng/mL
same,half-life,"[9]; mouse, plasma, 10 mg/kg, oral, captisol",~4.5 h
same,concentration at 2 h,"[9]; mouse, tumor, 10 mg/kg, 2 hr after last dose, MCF7 xenograft, oral 5 days/week for 10 days, read-out: Tumor",1430 ± 631 ng/mL
same,concentration at 4 h,"[9]; mouse, tumor, 10 mg/kg, 4 hr after last dose, MCF7 xenograft, oral 5 days/week for 10 days, read-out: Tumor",1010 ± 850 ng/mL
same,concentration at 8 h,"[9]; mouse, tumor, 10 mg/kg, 8 hr after last dose, MCF7 xenograft, oral 5 days/week for 10 days, read-out: Tumor",609 ± 404 ng/mL
same,concentration at 16 h,"[9]; mouse, tumor, 10 mg/kg, 16 hr after last dose, MCF7 xenograft, oral 5 days/week for 10 days, read-out: Tumor",187 ± 238 ng/mL
same,concentration at 16 h,"[9]; mouse, tumor, oral, 10 mg/kg, 16 h after the last dose, read-out: corresponding tumor concentration",> 100 nM
same,concentration at 16 h,"[9]; mouse, tumor, MCF-7 xenograft, 2 weeks daily oral 10 mg/kg, 16 h after the last dose, read-out: tumor tissue level",> 100 ng/g
same,toxicity at 10 mg/kg,[9]; once a day oral 10 mg/kg,no significant toxicity
same,Ki67 proliferation indices in tumors,"[10]; mouse, in vivo",dramatically decreased Ki67 proliferation indices
same,growth of MT-ERα xenografts,[10]; 10 mg/kg,potent activity; also recorded: decreased the growth and tumor weight
same,growth of MT-ERα xenografts,"[10]; listed as ERX-315, 10 mg/kg",decreased the growth; also recorded: potent activity
same,"mouse liver, uterus, body weight",[10]; 10 mg/kg,no effect on mouse liver or body weight; also recorded: No change in body weight
same,"mouse liver, uterus, body weight","[10]; listed as ERX-315, 10 mg/kg","no change in body weight; also recorded: no effect on mouse liver, uterus height or body weight"
same,immunogenicity,"[10]; syngeneic D2A1 tumors, spleen, lymph nodes, kidney, liver",not immunogenic
same,expression of sXBP1 and CHOP at the RNA level,[11],significantly enhance
